Experimental data: patent US5610160A, “Topical 5-fluorouracil prodrug composition and method” (priority 1994, dated 1997)
Converted amounts (≈) assume the structure as drawn. Like-named read-outs stand apart in the source and are kept apart here.

How the values were obtained:
[1] = Diffusion cell experiments: delivery of 5-FU through hairless mouse skin; format: in vitro ADME; details: for Ji, flux of 5-FU through the skin: from suspensions of prodrugs in IPM, hairless mouse skin; for Cs, amount of 5-FU in the skin: leached from hairless mouse skin in 24 hours subsequent to application of prodrug in vehicle for 48 hours; for Jj, flux of theophylline through the skin after application of the prodrug/formulation (relative damage): theophylline from suspension in PG
Procedure: The diffusion cell experiments were conducted as described by Sloan et al in J. Invest.
^b Flux in mg/cm^2 hour of 5FU from suspensions of prodrugs in
^c Amount of 5FU in mg leached from hairless mouse skin in 24 hours
subsequent to application of prodrug in vehicle for 48 hours.
^d Flux in mg/cm^2 hour of theophylline from suspension in PG.

[2] = Solubility of prodrug in isopropyl myristate (IPM); details: for solubility: isopropyl myristate, organic solvent or mixture; for CIPM, equivalent mg of 5FU/ml: IPM, 23 ± 1° C., value in parentheses
Procedure: The results from the determination of the physicochemical properties are recorded in the tables as CIPM (the saturated solubility of the prodrug in the isopropyl myristate (IPM) vehicle/formulation in which the prodrug was applied to the mouse skins), K (the partition coefficients of the prodrug between IPM and a pH 4.0 acetate buffer) and Cw (the solubility of the prodrug in pH 4.0 acetate buffer calculated from the partition coefficient and the IPM solubility).

[3] = shake-flask, brief shaking, IPM phase analyzed immediately; details: 23 ± 1 °C
[4] = Partition coefficient between IPM and pH 4.0 acetate buffer; format: physicochemical; details: 23 ± 1° C.
From the text: ^a Partition coefficient between IPM and pH 4.0 acetate buffer at 23

[5] = 22° C., cited from earlier work
[6] = 37° C., 0.05 M phosphate buffer pH 7.4, cited from earlier work
[7] = 22° C., cited from earlier work; remark: listed apart in the source
not told = details: 22 °C; cited from earlier work
[8] = 37° C., 80% human plasma, cited from earlier work
[9] = Buur et al (1986), compound 11 from Buur et al (1987)
[10] = J. Pharm. Sci. 75, 522, Buur et al (1986), compound 11 from Int. J. Pharm. 36, 41 (1987)
[11] = Int. J. Pharm. 21, 349, Buur et al (1984)

SMILES	Ji, flux of 5-FU through the skin [1]	Cs, amount of 5-FU in the skin [1]	Jj, flux of theophylline through the skin after application of the prodrug/formulation (relative damage) [1]	solubility [2]	log partition isopropyl myristate / pH 4.0 acetate buffer [3]	K, partition coefficient between IPM and pH 4.0 acetate buffer [4]	CIPM, equivalent mg of 5FU/ml [2]	Cw, solubility at pH 4.0 acetate buffer [5, 9]	Half-life, Buffer [6, 9]	log K, octanol/pH 4.0 acetate buffer [7, 10]	log partition octanol / pH 4.0 acetate buffer (not told)	Half-life, 80% Plasma [8, 9]	Cw, solubility at pH 4.0 acetate buffer ([5]; Buur et al (1984))	Half-life, 80% Plasma ([8]; Buur et al (1984))	Half-life, Buffer ([6]; Buur et al (1984))	log K, octanol/pH 4.0 acetate buffer [7, 11]
CC(=O)n1cc(F)c(=O)[nH]c1=O [Compound 1]	1.213 mg/cm^2 hour	8.85 mg	0.296 mg/cm^2 hour	3800 µg/mL (≈ 22.1 mM)	0.185 concentration ratio	0.185										
CCC(=O)n1cc(F)c(=O)[nH]c1=O [Compound 2]	0.560 mg/cm^2 hour	8.96 mg	0.219 mg/cm^2 hour	6770 µg/mL (≈ 36.4 mM)	0.764 concentration ratio	0.764										
CCCC(=O)n1cc(F)c(=O)[nH]c1=O [Compound 3]	0.168 mg/cm^2 hour	1.07 mg	0.185 mg/cm^2 hour	3480 µg/mL (≈ 17.4 mM)	2.69 concentration ratio	2.69										
CCCCC(=O)n1cc(F)c(=O)[nH]c1=O [Compound 4]	0.133 mg/cm^2 hour	2.08 mg	0.144 mg/cm^2 hour	8390 µg/mL (≈ 39.2 mM)	11.3 concentration ratio	11.3										
CCCCCC(=O)n1cc(F)c(=O)[nH]c1=O [Compound 5]		1.42 mg		25700 µg/mL (≈ 113 mM)	42.9 concentration ratio	42.9										
CCCCCCCC(=O)n1cc(F)c(=O)[nH]c1=O [Compound 6]	0.078 mg/cm^2 hour	1.58 mg	0.129 mg/cm^2 hour	28400 µg/mL (≈ 111 mM)			14.4 equivalent mg of 5FU/ml									
COC(=O)n1cc(F)c(=O)[nH]c1=O [Compound 7]	0.343 mg/cm^2 hour	1.08 mg	0.337 mg/cm^2 hour	400 µg/mL (≈ 2.13 mM)	0.026 concentration ratio	0.026		23.3 mg/ml	190 min	-0.68	-0.68 log10 concentration ratio					
CCOC(=O)n1cc(F)c(=O)[nH]c1=O [Compound 8]	0.770 mg/cm^2 hour	2.38 mg	0.357 mg/cm^2 hour	2640 µg/mL (≈ 13.1 mM)	0.0757 concentration ratio	0.0757	1.70 equivalent mg of 5FU/ml	6.9 mg/ml	550 min	-0.17	-0.17 log10 concentration ratio	2.1 min				
CCCOC(=O)n1cc(F)c(=O)[nH]c1=O [Compound 9]	0.294 mg/cm^2 hour	0.65 mg	0.300 mg/cm^2 hour	3280 µg/mL (≈ 15.2 mM)	0.359 concentration ratio	0.359										
CCCCOC(=O)n1cc(F)c(=O)[nH]c1=O [Compound 10]	0.284 mg/cm^2 hour	0.54 mg	0.321 mg/cm^2 hour	7770 µg/mL (≈ 33.8 mM)	1.46 concentration ratio	1.46		5.9 mg/ml	550 min	0.89	0.89 log10 concentration ratio	3.1 min				
CCCCCCOC(=O)n1cc(F)c(=O)[nH]c1=O [Compound 11]	0.195 mg/cm^2 hour	1.38 mg	0.321 mg/cm^2 hour	8700 µg/mL (≈ 33.7 mM)	31.1 concentration ratio	31.1		1.5 mg/ml	550 min	2.04	2.04 log10 concentration ratio	2.0 min				
CCCCCCCCOC(=O)n1cc(F)c(=O)[nH]c1=O [Compound 12]	0.037 mg/cm^2 hour	0.41 mg	0.323 mg/cm^2 hour	10400 µg/mL (≈ 36.3 mM)			4.72 equivalent mg of 5FU/ml									
CC(=O)n1c(=O)[nH]cc(F)c1=O [Compound 13]	0.575 mg/cm^2 hour	1.77 mg	0.282 mg/cm^2 hour	74 µg/mL (≈ 0.43 mM)	0.040 concentration ratio	0.040					-0.34 log10 concentration ratio		42.8 mg/ml	4.6 min	43 min	-0.34
CCCC(=O)n1c(=O)[nH]cc(F)c1=O [Compound 15]			0.204 mg/cm^2 hour	4440 µg/mL (≈ 22.2 mM)	0.97 concentration ratio	0.97	2.89 equivalent mg of 5FU/ml				0.67 log10 concentration ratio			28 min	58 min	0.67
CCCCC(=O)n1c(=O)[nH]cc(F)c1=O [Compound 16]	0.071 mg/cm^2 hour	0.38 mg			1.65 concentration ratio	1.65										
CC(=O)n1cc(F)c(=O)n(C(C)=O)c1=O [Compound 17]	0.291 mg/cm^2 hour	1.24 mg	0.282 mg/cm^2 hour	5600 µg/mL (≈ 26.1 mM)	2.93 concentration ratio	2.93										
CCC(=O)n1cc(F)c(=O)n(C(=O)CC)c1=O [Compound 18]	0.090 mg/cm^2 hour	0.51 mg	0.288 mg/cm^2 hour	17400 µg/mL (≈ 71.8 mM)	33.8 concentration ratio	33.8										
CCCC(=O)n1cc(F)c(=O)n(C(=O)CCC)c1=O [Compound 19]	0.127 mg/cm^2 hour	1.54 mg	0.190 mg/cm^2 hour	169000 µg/mL (≈ 625 mM)			81.4 equivalent mg of 5FU/ml									
CCCCC(=O)n1cc(F)c(=O)n(C(=O)CCCC)c1=O [Compound 20]	0.124 mg/cm^2 hour	1.14 mg	0.156 mg/cm^2 hour	352000 µg/mL (≈ 1180 mM)			154 equivalent mg of 5FU/ml									
